The target of experiment [1] is T1, NAD-dependent protein deacetylase sirtuin-1 (Homo sapiens) (UniProt Q96EB6).
T1 sequence (whole entry): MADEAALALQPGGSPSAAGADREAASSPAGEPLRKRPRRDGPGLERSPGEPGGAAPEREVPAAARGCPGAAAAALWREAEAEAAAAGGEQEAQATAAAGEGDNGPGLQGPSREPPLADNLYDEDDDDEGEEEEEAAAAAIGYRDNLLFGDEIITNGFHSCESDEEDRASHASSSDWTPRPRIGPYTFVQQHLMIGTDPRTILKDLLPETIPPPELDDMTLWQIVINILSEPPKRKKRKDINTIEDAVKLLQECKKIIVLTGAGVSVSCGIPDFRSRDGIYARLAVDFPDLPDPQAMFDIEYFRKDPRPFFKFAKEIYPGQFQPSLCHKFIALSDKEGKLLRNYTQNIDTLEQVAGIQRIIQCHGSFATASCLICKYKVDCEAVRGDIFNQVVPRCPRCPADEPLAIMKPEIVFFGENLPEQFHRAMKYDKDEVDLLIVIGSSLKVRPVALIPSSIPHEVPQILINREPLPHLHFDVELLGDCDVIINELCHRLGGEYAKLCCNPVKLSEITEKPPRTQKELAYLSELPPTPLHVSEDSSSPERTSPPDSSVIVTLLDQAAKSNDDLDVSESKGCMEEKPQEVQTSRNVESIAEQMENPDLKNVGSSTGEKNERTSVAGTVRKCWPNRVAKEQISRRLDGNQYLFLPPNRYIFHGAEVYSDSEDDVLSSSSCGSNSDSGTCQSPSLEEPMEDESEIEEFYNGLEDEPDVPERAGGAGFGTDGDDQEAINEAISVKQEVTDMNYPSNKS
Description: Activation of human recombinant SIRT1 at 100 uM preincubated for 60 mins prior to substrate addition measured after 60 mins by fluorescence assay.

The target in experiment [2] is T1, NAD-dependent protein deacetylase sirtuin-1 (Homo sapiens). Put plainly: Activation of human recombinant SIRT1 at 10 uM preincubated for 60 mins prior to substrate addition measured after 60 mins by fluorescence assay.

The structures appear in SMILES notation. Activity calls are given as the source filed them. The rule behind the calls is not given here.

Regarding `O=C(Nc1cccc(-c2cn3c(CN4CCNCC4)csc3n2)c1)c1cnc2ccccc2n1`, the outcome in experiment [1] and in experiment [2] was Active.

With `O=C(Nc1cccc(-c2cn3c(CN4CCNCC4)csc3n2)c1)c1ccc2ccccc2n1`, the outcome in experiment [1] was Active. In addition, in experiment [2], the Activity stood at 140%.

For `O=C(Nc1ccccc1-c1cn2c(CN3CCNCC3)csc2n1)c1cnc2ccccc2n1`, the result in experiment [1] was Active. The Activity in experiment [2] was determined as 160%.

For `O=C(Nc1ccccc1-c1cn2c(CN3CCNCC3)csc2n1)c1cccc2ccccc12`, the result in experiment [2] was inactive.

As for `O=C(Nc1cccc(-c2cn3c(CN4CCNCC4)csc3n2)c1)c1cc2ccccc2[nH]1`, the outcome in experiment [2] was inactive.

As to `COCCOCOCc1csc2nc(-c3ccccc3NC(=O)c3cnc4ccccc4n3)cn12`, the result in experiment [2] was inactive.

As to `O=C(Nc1cccc(-c2cn3c(CN4CCNCC4)csc3n2)c1)c1cnc2ccccc2c1`, the outcome in experiment [1] was Active. Further, in experiment [2], the Activity came out at 140%.

For `O=C(Nc1ccc(-c2cn3c(CN4CCNCC4)csc3n2)cc1)c1cnc2ccccc2n1`, the result in experiment [2] was inactive.

In the case of `COCc1csc2nc(-c3ccccc3NC(=O)c3cnc4ccccc4n3)cn12`, the outcome in experiment [2] was inactive.

In the case of `O=C(Nc1cccc(-c2cn3c(CN4CCCCC4)csc3n2)c1)c1cnc2ccccc2n1`, the outcome in experiment [2] was inactive.

As to `O=C(Nc1cccc(-c2cn3c(CN4CCNCC4)csc3n2)c1)c1ccnc2ccccc12`, the outcome in experiment [2] was inactive.

Turning to `O=C(Nc1cccc(-c2cn3c(CN4CCCC4)csc3n2)c1)c1cnc2ccccc2n1`, the result in experiment [2] was inactive.

Turning to `O=C(Nc1ccccc1-c1cn2c(CN3CCNCC3)csc2n1)c1ccnc2ccccc12`, in experiment [2], the outcome was inactive.

With `O=C(Nc1ccccc1-c1cn2c(CN3CCNCC3)csc2n1)c1ccc2ccccc2c1`, the result in experiment [2] was inactive.

As to `CNCc1csc2nc(-c3ccccc3NC(=O)c3cnc4ccccc4n3)cn12`, in experiment [2], the result was inactive.

Take `O=C(Nc1cccc(-c2cn3c(CN4CCOCC4)csc3n2)c1)c1cnc2ccccc2n1`: the outcome in experiment [2] was inactive.

As to `O=C(Nc1cccc(-c2cn3c(CN4CCNCC4)csc3n2)c1)c1cnccn1`, the result in experiment [2] was inactive.

For the origin of these results see ChEMBL document CHEMBL2412998, “Search for a novel SIRT1 activator: structural modification of SRT1720 and biological evaluation” (Bioorg Med Chem Lett, 2013).
